Measurements as given in patent US20050267067A1, “Radical reaction inhibitors, method for inhibition of radical reactions, and use thereof” (priority 2002, published 2005).

Key:
[1] = Modification of L-lysine by lipid peroxides (protein carbonyl, OLAARPs); conditions: for OLAARPs Formation: (%) / Protein carbonyl Formation: (%): L-lysine, versus no saccharide; for Formed OLAARPs / Formed Protein carbonyl: 37° C., 24 hours
Procedure: In this experiment, saccharide solutions were prepared to give an equal total saccharide molar concentration in each solution.
As a negative control, PBS was used.
To five milliliters of either of the above saccharide solutions for testing or the negative control was added 10 mg of calf serum albumin (BSA) or L-lysine, followed by dissolving. To each of the resulting solutions was added 25 μg of 2,4-decadienal or malondialdehyde (MDA) as a lipid peroxide, followed by reaction at 37° C. for 24 hours. After completion of the reaction, protein carbonyl and reaction products of oxidized lipids/aminoacids (OLAARPs) formed as aldehyde adducts were quantified on the calorimetric method. […] The formation levels of protein carbonyl and OLAARPs were determined based on the absorbances obtained in this experiment, in terms of the molar absorbance coefficient for each molecule as disclosed in Biochim. Biophys. Acta, No. 1,258, pp. 319-327 (1985).
To each of the resulting mixtures was added 600 μl of 30% trichloroacetic acid, and the mixture was allowed to stand at 0° C. for one hour and centrifuged at 10,000 rpm for 15 min to obtain a precipitate, followed by washing the resulting precipitate four times with two milliliters of ethanol/ethylacetate (1:1), respectively, adding 1.5 ml of 6M-guanidine hydrochloride/20 mM-NaPi/TFA (pH 2.3) to the resultant, allowing the mixture to stand at 37° C. for 30 min, and measuring the absorbance of the resulting mixture at a wavelength of 580 nm, ε=35,000 M^−1 cm^−1. […] To any one of the resulting mixtures was added two milliliters of a 12.5 mM DNPH/2.5 N-hydrochloride solution, and the resulting mixture was allowed to stand at 45° C. for 30 min, followed by measuring the absorbance of the resulting mixture at a wavelength of 580 nm, E=35,000 M^−1 cm^−1.

[2] = Preservation of powdery vitamin E preparations at 60° C., GC; format: physicochemical; conditions: for Amount of vitamin E: per one gram of vitamin E preparation
Procedure: Vitamin E (α-tocopherol) commercialized by Wako Pure Chemical Industries Ltd., Tokyo, Japan, was dissolved in ethanol (a special grade reagent, commercialized by Katayama Chemical Industries Co., Ltd., Osaka, Japan) to make into an ethanol solution with a vitamin E content of 10%. Ten grams of the powdery anhydrous cyclotetrasaccharide, prepared in Example 3, were placed in a glass mortar and then a small amount of […] was added to the cyclotetrasaccharide. Using a glass rod, the mixture was repeatedly mixed with additional ethanol or acetic acid until the mixture could not keep its powdery form. Thus, a vitamin E preparation was obtained. As controls, vitamin E preparations were prepared by using “ISOELITE P™”, a powdery branched cyclodextrin commercialized by Ensuiko Sugar Refining Co., Ltd., Tokyo, Japan, a powdery anhydrous crystalline α,α-trehalose prepared according to the method disclosed in Japanese Patent Kokai No. 213,283/95, “PINEFIBER™”, a powdery dextrin product commercialized by Matsutani Chemical Industries Co., Ltd., Hyogo, Japan, or a soluble starch commercialized by Katayama Chemical Industries Co., Ltd., Osaka, Japan, except for using cyclotetrasaccharide by the same procedure. Successively, each powdery vitamin E preparation was dried under a reduced pressure by keeping the preparation at ambient temperature for five hours in a desiccators containing (P2O5) to evaporate ethanol. About 0.5 gram each of the five powdery vitamin E preparations containing any one of those saccharides was weighted and placed in 20 ml-glass vials and sealed. […] The amount of vitamin E in each sample was determined by: adding 10 ml of ethanol to each of the vials containing the test samples; extracting vitamin E by shaking the resulting suspensions; centrifuging the suspensions at 10,000 rpm for 10 minutes; and measuring the amount of vitamin E in the resulting supernatants by gas-chromatography (GC). GC was carried out using “GC-14A”, a GL apparatus produced by Shimadzu Corporation, Kyoto, Japan, installed with “DB-1”, a column (internal diameter: 0.25 mm, length: 30 m) commercialized by Agilent Technologies, USA (former name; J & W Scientific, USA). The amount of vitamin E (mg) per one gram of a vitamin E preparation and the residual vitamin E (%) was calculated and expressed with a relative value, when the amount of vitamin E in each test sample just after its preparation was regarded as 100%, as shown in Table 11.

[3] = Preservation of vitamin D3 tablets at 60° C., absorbance at 265 nm; format: physicochemical; conditions: for Amount of vitamin D3: per one gram of vitamin D3 tablet
Procedure: Vitamin D3 (cholecalciferol), as vitamin D, commercialized by Wako Pure Chemical Industries Ltd., Tokyo, Japan, was dissolved in ethanol with the highest purity, commercialized by Katayama Chemical Industries Co., Ltd., Osaka, Japan, to make into an ethanol solution with a vitamin D3 content of 3%. To eight grams of the powdery anhydrous cyclotetrasaccharide, prepared in Example 3, was added 1.5 ml of the above ethanol solution and the resulting mixture was pulverized similarly as in Example 20, dried under a reduced pressure, and made into a powdery vitamin D3 preparation containing cyclotetrasaccharide. […] About 0.3 gram each of the powdery vitamin D3 preparations containing any one of the above saccharides was made into a vitamin D3 tablet by pressurizing at 200 kg/cm^2 for two minutes using a tablet machine. Vitamin D3 tablets thus obtained were weighted and each one tablet of which was placed in a 20 ml-glass vial and sealed to obtain five kinds of vitamin D3 tablets containing a saccharide. The vials were preserved under a normal pressure at 60° C. and the amount of vitamin D3 remaining in the vials was examined just after preparation, after preserving for two hours, one day, two days, and seven days, respectively. The amount of vitamin D3 in each tablet was determined by: adding 10 ml of 70% aqueous ethanol solution to each vial containing any of the test samples; crushing the tablets using a glass rod before extracting vitamin D3; filling up the total volume to 50 ml with 70% aqueous ethanol solution; centrifuging the resulting solutions at 10,000 rpm for 10 minutes; filtrating the resulting supernatants; and measuring the absorbance at a wavelength of 265 nm for the resulting filtrates. The amount of vitamin D3 was calculated based on the absorbance coefficient (E1%) at a wavelength of 265 nm, which was regarded as 475. The amount of vitamin D3 (mg) per one gram of each of the vitamin D3 tablets and the residual vitamin D3 (%) was calculated based on the amount of vitamin D3 in the test samples just after preparation, which was regarded as 100%. The results are in Table

[4] = 2,4-decadienal, listed as cyclotetrasaccharide
[5] = MDA, listed as cyclotetrasaccharide
[6] = added lipid peroxide 2,4-decadienal
[7] = added lipid peroxide malondialdehyde (MDA)
[8] = just after its preparation (regarded as 100%)

| Residual vitamin E (%) ([2]; 0 days (regarded as 100%)) | Residual vitamin E (%) ([2]; 1 day at 60° C.) | Residual vitamin E (%) ([2]; 3 days at 60° C.) | Residual vitamin E (%) ([2]; 7 days at 60° C.) | Residual vitamin E (%) ([2]; 14 days at 60° C.) | Amount of vitamin E ([2]; 0 days at 60° C.) [mg] | Amount of vitamin E ([2]; 1 day at 60° C.) [mg] | Amount of vitamin E ([2]; 3 days at 60° C.) [mg] | Amount of vitamin E ([2]; 7 days at 60° C.) [mg] | Amount of vitamin E ([2]; 14 days at 60° C.) [mg] | Residual D3 percentage (%) [3, 8] | Residual D3 percentage (%) ([3]; one day at 60° C.) | SMILES | OLAARPs Formation: (%) ([1]; 2,4-decadienal) | Protein carbonyl Formation: (%) ([1]; 2,4-decadienal) | OLAARPs Formation: (%) ([1]; MDA) | Protein carbonyl Formation: (%) ([1]; MDA) | Formed OLAARPs [1, 6] [μmol/g-L-lysine] | Formed Protein carbonyl [1, 6] [μmol/g-L-lysine] | Formed OLAARPs [1, 7] [μmol/g-L-lysine] | Formed Protein carbonyl [1, 7] [μmol/g-L-lysine] | also measured |
| --- | --- | --- | --- | --- | --- | --- | --- | --- | --- | --- | --- | --- | --- | --- | --- | --- | --- | --- | --- | --- | --- |
| (100) % | (98) % | (95) % | (90) % | (61) % | 75.9 | 74.4 | 72.0 | 68.5 | 46.3 | (100) % | (66) % | OCC1OC2OCC3O[C@H](O[C@H]4C(O)C(CO)OC(OCC5O[C@H](O[C@@H](C1O)C2O)C(O)C(O)[C@@H]5O)C4O)C(O)C(O)[C@@H]3O (stereo partly drawn) [Cyclotetrasaccharide, cyclo{→6}-α-D-glucopyranosyl-(1→3)-α-D-glucopyranosyl-(1→6)-α-D-glucopyranosyl-(1→3)-α-D-glucopyranosyl-(1→}] | (67) % | (48) % | (39) % | (66) % | 5.44 | 6.42 | 3.39 | 3.93 | OLAARPs Formation: (%) [1, 4]: about 67%; Protein carbonyl Formation: (%) [1, 4]: about 48%; OLAARPs Formation: (%) [1, 5]: about 39%; Protein carbonyl Formation: (%) [1, 5]: about 66%; Amount of vitamin D3 ([3]; just after its preparation): 5.27 mg; Amount of vitamin D3 ([3]; one day at 60° C.): 3.49 mg; Amount of vitamin D3 ([3]; seven days at 60° C.): 2.65 mg; Amount of vitamin D3 ([3]; two days at 60° C.): 2.91 mg; Amount of vitamin D3 ([3]; two hours at 60° C.): 4.57 mg; Residual D3 percentage (%) ([3]; seven days at 60° C.): (50) %; Residual D3 percentage (%) ([3]; seven days at 60° C., listed as cyclotetrasaccharide): 90%; Residual D3 percentage (%) ([3]; two days at 60° C.): (55) %; Residual D3 percentage (%) ([3]; two hours at 60° C.): (87) % |
| (100) % | (99) % | (85) % | (73) % | (41) % | 36.7 | 36.2 | 31.0 | 26.6 | 15.1 | (100) % | (24) % | OC[C@H]1O[C@H](O[C@H]2O[C@H](CO)[C@@H](O)[C@H](O)[C@H]2O)[C@H](O)[C@@H](O)[C@@H]1O [α, α-Trehalose, α, α-trehalose, reference compound] | (70) % | (55) % | (38) % | (67) % | 5.72 | 7.47 | 3.24 | 3.99 | Amount of vitamin D3 ([3]; just after its preparation): 4.67 mg; Amount of vitamin D3 ([3]; one day at 60° C.): 1.11 mg; Amount of vitamin D3 ([3]; seven days at 60° C.): 1.05 mg; Amount of vitamin D3 ([3]; two days at 60° C.): 1.02 mg; Amount of vitamin D3 ([3]; two hours at 60° C.): 1.58 mg; Residual D3 percentage (%) ([3]; seven days at 60° C.): (22) %; Residual D3 percentage (%) ([3]; two days at 60° C.): (22) %; Residual D3 percentage (%) ([3]; two hours at 60° C.): (34) % |
